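Compound exposure: 48 hours, 5 concentrations, 96-well plates. GI50 is the concentration that inhibits growth by half.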 Calls of active or inactive are those of the source. Rule as the data show it: active = GI50 up to about 1.1 µM and inactive = higher.
Assays:
Test in all cases: DTP human tumour cell line panel, 48 h
DU-145 = tested on: DU-145
OVCAR-8 = tested on: OVCAR-8
SF-539 = tested on: SF-539
NCI-H226 = tested on: NCI-H226
SNB-75 = tested on: SNB-75
MDA-MB-435 = tested on: MDA-MB-435
OVCAR-3 = tested on: OVCAR-3
HCC 2998 = tested on: HCC 2998
NCI-H522 = tested on: NCI-H522
SF-268 = tested on: SF-268
UACC-257 = tested on: UACC-257
NCI/ADR-RES = tested on: NCI/ADR-RES
U-251 = tested on: U-251
SF-295 = tested on: SF-295
ACHN = tested on: ACHN
KM12 = tested on: KM12
K562 = tested on: K562
PC-3 = tested on: PC-3
MOLT-4 = tested on: MOLT-4
MDA-N = tested on: MDA-N
Hs-578T = tested on: Hs-578T
CAKI-1 = tested on: CAKI-1
HOP-62 = tested on: HOP-62
COLO 205 = tested on: COLO 205
SK-MEL-2 = tested on: SK-MEL-2
A498 = tested on: A498
OVCAR-5 = tested on: OVCAR-5
HCT-116 = tested on: HCT-116
RPMI-8226 = tested on: RPMI-8226
HCT-15 = tested on: HCT-15
TK-10 = tested on: TK-10
HOP-92 = tested on: HOP-92
NCI-H23 = tested on: NCI-H23
SR = tested on: SR
HT-29 = tested on: HT-29
M14 = tested on: M14
HL-60 = tested on: HL-60
SK-MEL-5 = tested on: SK-MEL-5
T47D = tested on: T47D
RXF 393 = tested on: RXF 393
SK-OV-3 = tested on: SK-OV-3
CCRF-CEM = tested on: CCRF-CEM
SK-MEL-28 = tested on: SK-MEL-28
SW-620 = tested on: SW-620
LOX IMVI = tested on: LOX IMVI
NCI-H460 = tested on: NCI-H460
OVCAR-4 = tested on: OVCAR-4
UACC-62 = tested on: UACC-62
MCF7 = tested on: MCF7
IGROV-1 = tested on: IGROV-1
SNB-19 = tested on: SNB-19
UO-31 = tested on: UO-31
A549 = tested on: A549
BT-549 = tested on: BT-549
EKVX = tested on: EKVX
MDA-MB-231 = tested on: MDA-MB-231
SN12C = tested on: SN12C
786-0 = tested on: 786-0
Malme-3M = tested on: Malme-3M

`Cc1c(N)nc([C@H](CC(N)=O)NC[C@H](N)C(N)=O)nc1C(=O)N[C@H](C(=O)N[C@H](C)[C@@H](O)CC(=O)N[C@H](C(=O)NC(O[C@@H]1O[C@@H](C)[C@@H](N)[C@@H](O)[C@H]1O)C(O)c1nc(-c2nc(C(=O)NCCCCN)cs2)cs1)[C@@H](C)O)[C@@H](O[C@@H]1O[C@@H](CO)[C@@H](O)[C@H](O)[C@@H]1O[C@H]1O[C@H](CO)[C@@H](O)[C@H](OC(N)=O)[C@@H]1O)c1c[nH]cn1` (stereo partly specified) was tested, and the GI50 (DU-145) was > 27.7 µM (inactive), the GI50 (OVCAR-8) was 12.6 µM (inactive) and the GI50 (SF-539) was 0.311 µM (active). The GI50 (NCI-H226) was 0.216 µM (active), the GI50 (SNB-75) was 6.73 µM (inactive) and the GI50 (MDA-MB-435) was > 50 µM (inactive). For the same compound, the GI50 (OVCAR-3) was > 48.1 µM (inactive), the GI50 (HCC 2998) was 0.134 µM (active) and the GI50 (NCI-H522) was 11.2 µM (inactive). For the same compound, the GI50 (SF-268) was 16.1 µM (inactive), the GI50 (UACC-257) was > 50 µM (inactive) and the GI50 (NCI/ADR-RES) was 7.89 µM (inactive). The GI50 (U-251) was > 50 µM (inactive), the GI50 (SF-295) was 1.14 µM (inactive) and the GI50 (ACHN) was 0.223 µM (active). The GI50 (KM12) was 49.1 µM (inactive), the GI50 (K562) was > 50 µM (inactive) and the GI50 (PC-3) was > 50 µM (inactive). The GI50 (MOLT-4) was > 39.9 µM (inactive), the GI50 (MDA-N) was > 50 µM (inactive) and the GI50 (Hs-578T) was 18.7 µM (inactive). For the same compound, the GI50 (CAKI-1) was 5.85 µM (inactive), the GI50 (HOP-62) was 1.98 µM (inactive) and the GI50 (COLO 205) was > 50 µM (inactive). The GI50 (SK-MEL-2) was > 50 µM (inactive), the GI50 (A498) was > 50 µM (inactive) and the GI50 (OVCAR-5) was > 50 µM (inactive). For the same compound, the GI50 (HCT-116) was 3.86 µM (inactive), the GI50 (RPMI-8226) was > 50 µM (inactive) and the GI50 (HCT-15) was greater than 32.2 µM. For the same compound, the GI50 (TK-10) was > 50 µM (inactive), the GI50 (HOP-92) was 12.9 µM (inactive) and the GI50 (NCI-H23) was 5.73 µM (inactive). The GI50 (SR) was 0.0316 µM (active), the GI50 (HT-29) was > 50 µM (inactive) and the GI50 (M14) was > 36.9 µM (inactive). The GI50 (HL-60) was > 44.2 µM (inactive), the GI50 (SK-MEL-5) was 12.6 µM (inactive) and the GI50 (T47D) was > 50 µM (inactive). For the same compound, the GI50 (RXF 393) was 7.67 µM (inactive), the GI50 (SK-OV-3) was > 50 µM (inactive) and the GI50 (CCRF-CEM) was > 50 µM (inactive). The GI50 (SK-MEL-28) was > 50 µM (inactive), the GI50 (SW-620) was > 50 µM (inactive) and the GI50 (LOX IMVI) was 2.89 µM (inactive). For the same compound, the GI50 (NCI-H460) was 0.145 µM (active), the GI50 (OVCAR-4) was > 50 µM (inactive) and the GI50 (UACC-62) was 11.9 µM (inactive). The GI50 (MCF7) was > 39.9 µM (inactive), the GI50 (IGROV-1) was 16 µM (inactive) and the GI50 (SNB-19) was > 50 µM (inactive). The GI50 (UO-31) was 3.78 µM (inactive), the GI50 (A549) was 18.7 µM (inactive) and the GI50 (BT-549) was > 50 µM (inactive). The GI50 (EKVX) was > 50 µM (inactive), the GI50 (MDA-MB-231) was > 50 µM (inactive) and the GI50 (SN12C) was 16.5 µM (inactive).
`C=C1C(=O)O[C@H]2[C@@H](O)[C@H](C)CCC/C(C)=C/CC[C@@]3(C)O[C@@H]3C[C@@H]12` was tested, and the GI50 (DU-145) was 6.03 µM (inactive), the GI50 (OVCAR-8) was 4.38 µM (inactive) and the GI50 (SF-539) was 2.59 µM (inactive). The GI50 (NCI-H226) was 1.53 µM (inactive), the GI50 (SNB-75) was 15.1 µM (inactive) and the GI50 (MDA-MB-435) was 7.5 µM (inactive). For the same compound, the GI50 (OVCAR-3) was 11.3 µM (inactive), the GI50 (HCC 2998) was 13.2 µM (inactive) and the GI50 (NCI-H522) was 2.68 µM (inactive). For the same compound, the GI50 (SF-268) was 8.22 µM (inactive), the GI50 (UACC-257) was 9.16 µM (inactive) and the GI50 (786-0) was 3.61 µM (inactive). For the same compound, the GI50 (NCI/ADR-RES) was 6.43 µM (inactive), the GI50 (U-251) was 8.73 µM (inactive) and the GI50 (SF-295) was 18.1 µM (inactive). For the same compound, the GI50 (ACHN) was 2.16 µM (inactive), the GI50 (KM12) was 16.8 µM (inactive) and the GI50 (K562) was 4.06 µM (inactive). The GI50 (PC-3) was 13.7 µM (inactive), the GI50 (MOLT-4) was 2.29 µM (inactive) and the GI50 (MDA-N) was 11.2 µM (inactive). The GI50 (Hs-578T) was 14.7 µM (inactive), the GI50 (Malme-3M) was 11.5 µM (inactive) and the GI50 (CAKI-1) was 2.33 µM (inactive). For the same compound, the GI50 (HOP-62) was 22.3 µM (inactive), the GI50 (COLO 205) was 3.93 µM (inactive) and the GI50 (SK-MEL-2) was 18.1 µM (inactive). For the same compound, the GI50 (A498) was 12.4 µM (inactive), the GI50 (OVCAR-5) was 15.7 µM (inactive) and the GI50 (HCT-116) was 3.19 µM (inactive). For the same compound, the GI50 (RPMI-8226) was 8.38 µM (inactive), the GI50 (HCT-15) was 1.92 µM and the GI50 (TK-10) was 1.86 µM (inactive). For the same compound, the GI50 (HOP-92) was 2.59 µM (inactive), the GI50 (NCI-H23) was 8.75 µM (inactive) and the GI50 (SR) was 1.88 µM (inactive). For the same compound, the GI50 (HT-29) was 5.45 µM (inactive), the GI50 (M14) was 3.94 µM (inactive) and the GI50 (HL-60) was 2.47 µM (inactive). The GI50 (SK-MEL-5) was 11.8 µM (inactive), the GI50 (T47D) was 3.4 µM (inactive) and the GI50 (RXF 393) was 2.85 µM (inactive). For the same compound, the GI50 (SK-OV-3) was 18.5 µM (inactive), the GI50 (CCRF-CEM) was 1.07 µM (active) and the GI50 (SK-MEL-28) was 13.7 µM (inactive). The GI50 (SW-620) was 10.2 µM (inactive), the GI50 (LOX IMVI) was 4.43 µM (inactive) and the GI50 (NCI-H460) was 5.89 µM (inactive). For the same compound, the GI50 (OVCAR-4) was 7.16 µM (inactive), the GI50 (UACC-62) was 9.79 µM (inactive) and the GI50 (MCF7) was 7.18 µM (inactive). The GI50 (IGROV-1) was 3.5 µM (inactive), the GI50 (SNB-19) was 16.7 µM (inactive) and the GI50 (UO-31) was 5.47 µM (inactive). For the same compound, the GI50 (A549) was 20.5 µM (inactive), the GI50 (BT-549) was 3.3 µM (inactive) and the GI50 (EKVX) was 4.22 µM (inactive). For the same compound, the GI50 (MDA-MB-231) was 12.9 µM (inactive) and the GI50 (SN12C) was 5.77 µM (inactive).
